Results reported in patent publication US20070032508A1, “Quinazoline derivatives as tyrosine kinase inhibitors” (priority 2003, published 2007).

How the values were obtained:
[1] = target: T1, EGFR tyrosine kinase (Homo sapiens, UniProt P00533); test: Test (a) protein tyrosine kinase phosphorylation assay, EGFR; format: biochemical; settings: recombinant intracellular fragment, ATP at Km; read-out: IC50 Test (a): Inhibition of EGFR tyrosine kinase protein phosphorylation
T1 construct: Recombinant intracellular fragments of EGFR, erbB2 and erbB4; made in house; host or cells: baculovirus/Sf21 insect cells (cleared lysate used)
Experimental: (§1) A) Protein Tyrosine Kinase Phosphorylation Assays
This test measures the ability of a test compound to inhibit the phosphorylation of a tyrosine containing polypeptide substrate by EGFR tyrosine kinase enzyme.
(§2) Recombinant intracellular fragments of EGFR, erbB2 and erbB4 (accession numbers X00588, X03363 and L07868 respectively) were cloned and expressed in the baculovirus/Sf21 system. Lysates were prepared from these cells by treatment with ice-cold lysis buffer (20 mM N-2-hydroxyethylpiperizine-N′-2-ethanesulfonic acid (HEPES) pH7.5, 150 mM NaCl, 10% glycerol, 1% Triton X-100, 1.5 mM MgCl2, 1 mM ethylene glycol-bis(β-aminoethyl ether) N′,N′,N′,N′-tetraacetic acid (EGTA), plus protease inhibitors and then cleared by centrifugation.
(§3) Constitutive kinase activity of these recombinant proteins was determined by their ability to phosphorylate a synthetic peptide (made up of a random co-polymer of Glutamic Acid, Alanine and Tyrosine in the ratio of 6:3:1). Specifically, Maxisorb™ 96-well immunoplates were coated with synthetic peptide (0.2 μg of peptide in a 200 μl phosphate buffered saline (PBS) solution and incubated at 4° C. overnight). Plates were washed in 50 mM HEPES pH 7.4 at room temperature to remove any excess unbound synthetic peptide. […]
(§4) The immobilised phospho-peptide product of the reaction was detected by immunological methods. […] After further washing, HRP activity in each well of the plate was measured […] using 22′-Azino-di-[3-ethylbenzthiazoline sulfonate (6)] diammonium salt crystals (ABTS™ from Roche) as a substrate.
(§5) Quantification of colour development and thus enzyme activity was achieved by the measurement of absorbance at 405 nm on a Molecular Devices ThermoMax microplate reader. Kinase inhibition for a given compound was expressed as an IC50 value. […] The range of phosphorylation was calculated from the positive (vehicle plus ATP) and negative (vehicle minus ATP) control values.

[2] = target: T2, erbB2 in a MCF7 derived cell line (Clone 24 cells) (Homo sapiens, UniProt P04626); test: Test (c) Clone 24 phospho-erbB2 cell assay; format: cell-based; settings: Clone 24 cells (MCF7 transfected with full length erbB2), 4 hrs with compound; read-out: IC50 Test (c): Inhibition of erbB2 tyrosine kinase protein phosphorylation
T2 construct: a cell line that overexpresses full length wild type erbB2 protein; expressed in transfected cells; host or cells: MCF7 (breast carcinoma) cells, 'Clone 24'
Experimental: c) Clone 24 phospho-erbB2 Cell Assay
This immunofluorescence end point assay measures the ability of a test compound to inhibit the phosphorylation of erbB2 in a MCF7 (breast carcinoma) derived cell line which was generated by transfecting MCF7 cells with the full length erbB2 gene using standard methods to give a cell line that overexpresses full length wild type erbB2 protein (hereinafter ‘Clone 24’ cells).
Clone 24 cells were cultured in Growth Medium (phenol red free Dulbecco's modified Eagle's medium (DMEM) containing 10% foetal bovine serum, 2 mM glutamine and 1.2 mg/ml G418) in a 7.5% CO2 air incubator at 37° C. Cells were harvested from T75 stock flasks by washing once in PBS phosphate buffered saline, pH7.4, Gibco No. 10010-015) and harvested using 2 mls of Trypsin (1.25 mg/ml)/ethylaminediaminetetraacetic acid (EDTA) (0.8 mg/ml) solution. The cells were resuspended in Growth Medium. Cell density was measured using a haemocytometer and viability was calculated using Trypan Blue solution before being further diluted in Growth Medium and seeded at a density of 1×10^4 cells per well (in 100 ul) into clear bottomed 96 well plates (Packard, No. 6005182).
3 days later, Growth Medium was removed from the wells and replaced with 100 ul Assay Medium (phenol red free DMEM, 2 mM glutamine, 1.2 mg/ml G418) either with or without erbB inhibitor compound. Plates were returned to the incubator for 4 hrs and then 20 μl of 20% formaldehyde solution in PBS was added to each well and the plate was left at room temperature for 30 minutes. This fixative solution was removed with a multichannel pipette, 100 μl of PBS was added to each well and then removed with a multichannel pipette and then 50 μl PBS was added to each well. Plates were then sealed and stored for up to 2 weeks at 4° C.
Immunostaining was performed at room temperature. […]
The Fluorescence signal is each well was measured using an Acumen Explorer Instrument (Acumen Bioscience Ltd.), a plate reader that can be used to rapidly quantitate features of images generated by laser-scanning. […]

[3] = target: T3, erbB2 tyrosine kinase (Homo sapiens, UniProt P04626); test: Test (a) protein tyrosine kinase phosphorylation assay, erbB2; format: biochemical; settings: recombinant intracellular fragment, ATP at Km; read-out: IC50 Test (a): Inhibition of erbB2 tyrosine kinase protein phosphorylation
T3 construct: Recombinant intracellular fragments of EGFR, erbB2 and erbB4; made in house; host or cells: baculovirus/Sf21 insect cells (cleared lysate used)
Experimental: as §1, §2, §3, §4, §5

T3 sequence (P04626 676-1255 limits assumed): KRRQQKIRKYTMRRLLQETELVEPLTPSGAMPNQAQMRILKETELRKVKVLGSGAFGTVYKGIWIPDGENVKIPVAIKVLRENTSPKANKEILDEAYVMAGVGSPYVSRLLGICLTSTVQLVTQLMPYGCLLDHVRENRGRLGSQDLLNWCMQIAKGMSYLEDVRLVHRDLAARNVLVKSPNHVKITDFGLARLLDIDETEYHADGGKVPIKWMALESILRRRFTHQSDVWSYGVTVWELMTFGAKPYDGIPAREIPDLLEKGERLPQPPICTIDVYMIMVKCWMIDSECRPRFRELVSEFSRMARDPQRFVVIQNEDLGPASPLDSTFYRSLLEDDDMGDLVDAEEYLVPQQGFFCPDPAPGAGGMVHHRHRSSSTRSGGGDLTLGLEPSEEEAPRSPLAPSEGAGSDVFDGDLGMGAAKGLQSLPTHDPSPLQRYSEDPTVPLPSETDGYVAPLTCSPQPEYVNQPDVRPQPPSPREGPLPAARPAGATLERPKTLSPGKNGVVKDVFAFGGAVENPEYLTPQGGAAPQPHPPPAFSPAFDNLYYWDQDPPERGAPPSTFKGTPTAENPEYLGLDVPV
T1 sequence (P00533 669-1210 limits assumed): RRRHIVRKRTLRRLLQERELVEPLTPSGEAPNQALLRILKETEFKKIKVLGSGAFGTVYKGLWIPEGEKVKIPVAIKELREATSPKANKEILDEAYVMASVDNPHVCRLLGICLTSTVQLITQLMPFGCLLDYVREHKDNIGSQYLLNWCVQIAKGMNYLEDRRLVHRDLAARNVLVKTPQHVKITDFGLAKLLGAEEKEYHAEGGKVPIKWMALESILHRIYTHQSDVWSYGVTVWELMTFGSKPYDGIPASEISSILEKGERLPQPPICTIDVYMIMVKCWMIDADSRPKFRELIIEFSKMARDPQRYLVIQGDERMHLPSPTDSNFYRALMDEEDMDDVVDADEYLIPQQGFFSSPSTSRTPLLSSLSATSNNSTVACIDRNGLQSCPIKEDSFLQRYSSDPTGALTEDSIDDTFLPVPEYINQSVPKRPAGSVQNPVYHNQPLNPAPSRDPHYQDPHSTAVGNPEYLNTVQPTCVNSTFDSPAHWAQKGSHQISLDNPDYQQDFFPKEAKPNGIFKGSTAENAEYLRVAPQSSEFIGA
T2 sequence (P04626 23-1255): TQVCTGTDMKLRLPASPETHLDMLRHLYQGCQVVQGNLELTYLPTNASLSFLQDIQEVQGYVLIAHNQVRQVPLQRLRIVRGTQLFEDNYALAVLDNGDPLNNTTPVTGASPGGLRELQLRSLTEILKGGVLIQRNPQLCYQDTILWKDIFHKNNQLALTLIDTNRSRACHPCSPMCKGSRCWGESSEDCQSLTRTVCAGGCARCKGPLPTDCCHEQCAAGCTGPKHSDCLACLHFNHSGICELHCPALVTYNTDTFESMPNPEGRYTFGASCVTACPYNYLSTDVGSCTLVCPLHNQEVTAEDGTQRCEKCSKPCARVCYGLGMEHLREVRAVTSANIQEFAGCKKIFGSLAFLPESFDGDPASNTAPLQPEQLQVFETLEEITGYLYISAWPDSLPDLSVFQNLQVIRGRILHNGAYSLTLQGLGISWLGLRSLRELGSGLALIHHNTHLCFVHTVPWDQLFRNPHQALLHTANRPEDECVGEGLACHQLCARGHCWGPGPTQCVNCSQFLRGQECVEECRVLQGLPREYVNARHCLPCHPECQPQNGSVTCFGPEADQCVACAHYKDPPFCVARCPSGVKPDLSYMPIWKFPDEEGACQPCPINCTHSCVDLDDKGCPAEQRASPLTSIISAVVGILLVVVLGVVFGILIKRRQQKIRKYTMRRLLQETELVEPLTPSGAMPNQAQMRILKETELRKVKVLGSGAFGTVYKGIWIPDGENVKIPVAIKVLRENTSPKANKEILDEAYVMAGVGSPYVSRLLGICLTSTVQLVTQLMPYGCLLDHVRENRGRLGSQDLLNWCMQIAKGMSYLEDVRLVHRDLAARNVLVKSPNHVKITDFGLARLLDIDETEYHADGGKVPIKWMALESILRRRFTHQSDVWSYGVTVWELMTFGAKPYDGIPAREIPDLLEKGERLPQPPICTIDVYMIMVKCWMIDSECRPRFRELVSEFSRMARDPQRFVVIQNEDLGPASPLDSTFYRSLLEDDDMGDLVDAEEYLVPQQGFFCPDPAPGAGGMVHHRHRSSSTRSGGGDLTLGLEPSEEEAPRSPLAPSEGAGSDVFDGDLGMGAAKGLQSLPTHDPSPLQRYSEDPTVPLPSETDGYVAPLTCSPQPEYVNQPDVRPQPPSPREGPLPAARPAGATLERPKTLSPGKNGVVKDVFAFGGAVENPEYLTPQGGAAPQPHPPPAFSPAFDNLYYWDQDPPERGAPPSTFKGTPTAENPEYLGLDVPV

IC50 [1]	IC50 [2]	IC50 [3]	SMILES
39 nM	210 nM	2 nM	CN(C)CC(=O)N1CCC(Oc2ccc3ncnc(Nc4ccc(OCc5ccccn5)c(Cl)c4)c3c2)CC1 [Example 8]
21 nM	150 nM	7 nM	CN(C)CC(=O)N1CCC(Oc2ccc3ncnc(Nc4ccc(OCc5cnccn5)c(Cl)c4)c3c2)CC1 [Example 9, N-[3-chloro-4-(pyrazin-2-ylmethoxy)phenyl]-6-({1-[(dimethylamino)acetyl]piperidin-4-yl}oxy)quinazolin-4-amine]
213 nM	4 nM	2 nM	CS(=O)(=O)N1CCC(COc2ccc3ncnc(Nc4ccc(OCc5ccccn5)c(Cl)c4)c3c2)C1 (stereo not drawn) [Example 14, N-[3-Chloro-4-(pyridin-2-ylmethoxy)phenyl]-6-{[1-(methylsulfonyl)pyrrolidin-3-yl]methoxy}quinazolin-4-amine]
